# Results as given in US20220056052A1, “QUINAZOLINE DERIVATIVES AS ECTONUCLEOTIDE PYROPHOSPHATASE PHOSPHODIESTERASE 1 INHIBITORS” (Riboscience LLC, priority 2018, published 2022).
# Where a name gives a salt, the structure may show the parent alone.
# Columns and labels:
# HGS tumor model = assay: Anti-tumor activity in HGS tumor model; format: in vivo; settings: animals treated with 20/kg of compound, day 42 after inoculation (vehicle 645)
# Source text: […]
# ENPP1 [1] = molecular target: T1, ENPP1 (Homo sapiens, UniProt P22413); assay: Measurement of 2′3′-cGAMP hydrolysis by ENPP1 (AMP-Glo)
# T1 sequence (P22413 1-925): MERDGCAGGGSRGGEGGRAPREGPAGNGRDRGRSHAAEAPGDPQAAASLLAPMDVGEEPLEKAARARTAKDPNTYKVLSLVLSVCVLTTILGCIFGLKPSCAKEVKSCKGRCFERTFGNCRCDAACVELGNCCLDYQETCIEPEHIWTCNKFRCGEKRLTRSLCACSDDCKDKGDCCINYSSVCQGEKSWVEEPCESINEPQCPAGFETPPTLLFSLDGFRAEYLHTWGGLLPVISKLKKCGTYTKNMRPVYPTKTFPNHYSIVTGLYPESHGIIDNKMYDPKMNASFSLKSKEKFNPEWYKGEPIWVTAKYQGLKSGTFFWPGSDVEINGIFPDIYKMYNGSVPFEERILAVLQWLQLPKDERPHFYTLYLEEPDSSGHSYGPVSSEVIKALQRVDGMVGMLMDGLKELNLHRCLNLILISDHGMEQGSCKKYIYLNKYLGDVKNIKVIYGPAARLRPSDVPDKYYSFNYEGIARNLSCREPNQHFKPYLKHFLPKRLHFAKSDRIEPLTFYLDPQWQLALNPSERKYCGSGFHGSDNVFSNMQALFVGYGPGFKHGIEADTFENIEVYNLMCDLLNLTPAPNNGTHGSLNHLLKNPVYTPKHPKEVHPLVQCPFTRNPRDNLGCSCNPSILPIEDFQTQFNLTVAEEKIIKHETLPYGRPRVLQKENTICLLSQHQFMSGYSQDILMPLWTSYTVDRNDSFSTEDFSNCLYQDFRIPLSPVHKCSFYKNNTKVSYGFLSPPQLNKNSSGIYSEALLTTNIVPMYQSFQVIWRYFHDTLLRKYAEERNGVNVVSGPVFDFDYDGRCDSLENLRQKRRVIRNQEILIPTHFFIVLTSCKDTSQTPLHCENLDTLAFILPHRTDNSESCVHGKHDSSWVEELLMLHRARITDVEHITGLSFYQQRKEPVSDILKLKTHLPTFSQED
# Procedure: Then, 15 μl of the ENPP1/Compound incubation was transferred to the 200 μM 2′3′-cGAMP solution to initiate the reaction. The 30 μl mixture was incubated for 30 min at 25° C. […] After 30 min the reaction was stopped by heating at 90° C. for 3 min.
# Third, now the Promega AMP-Glo kit was used to detect 5′-AMP production as a measurement of ENPP1 enzyme activity. To do this, 10 μl of the above mentioned 30 μl total reaction per sample was transferred into 384 well white solid assay plate for measurement of 5′-AMP production. For each well, 10 μl of AMP-Glo Reagent I was added, mixed well, and incubated for 1 hour at 25° C. At this time AMP detection solution was prepared and 20 μl was added per well, and the resulting solution was incubated for 1 hr at 25° C. Duplicates were run for each inhibitor concentration. Luminescence signal (relative luminescence units, RLU) was recorded using a PerkinElmer 2300 Enspire multimode plate reader.
# IC50 values of compounds were determined by loading compound concentration data and percent inhibition values into GraphPad Prism (GraphPad Prism version 7.0 for Windows, GraphPad Software, La Jolla Calif. USA, www.graphpad.com) and conducted a Sigmoidal variable slope nonlinear regression fitting.
# ENPP1 [2] = molecular target: T1, ENPP1; assay: Measurement of pNP-TMP hydrolysis by ENPP1; format: biochemical; settings: substrate pNP-TMP, (S) 500 μM, KM 232 μM; Ki from IC50 by Cheng-Prusoff
# Procedure: p-Nitrophenyl thymidine 5′-monophosphate (pNP-TMP) is a synthesized substrate for ENPP1. The ENPP1 enzyme activity assay with pNP-TMP substrate was conducted as follows:
# Incubation of ENPP1 with compounds was set at 25° C. for 10 min.
# Absorbance at 405 nm was recorded immediately in kinetic mode by PerkinElmer 2300 Enspire multimode plate reader.
# For each inhibitor, the specific ENPP1 activity was calculated using the following equation: ENPP1 activity (pmol/min/μg)=Adjusted Vmax (OD405 nm/min)×conversion factor (pmol/OD405 nm)/amount of enzyme (μg)
# Adjusted Vmax=V0×(Km+(S))/(S). […] V0=(OD405 nm with ENPP1−OD405 nm ENPP1 blank)/minutes. OD405 nm was plotted, with blank subtracted, against time (minutes), the initial linear rate is V0. […]
# The slope is the conversion factor. The percent ENPP1 activity for each sample was calculated using the following equation:
# % enzyme activity=sample enzyme activity/MAX Activity×100%.
# To determine the IC50 for each compound, compound concentration values and percent enzyme activity values were inserted into GraphPad Prism (GraphPad Prism version 7.0 for Windows, GraphPad Software, La Jolla Calif. USA, www.graphpad.com), and Prism's Transform analysis was used to convert the x-axis values (compound concentration) to logarithms. A sigmoidal variable slope nonlinear regression analysis was performed using the following equation: Y=Bottom+(Top−Bottom)/(1+10^((Log IC50^−X)*HillSlope)).
smiles,measurement,setting,value
"C=CC(=O)N1CCN(CCCn2c(=O)c(-c3c(Cl)c(OC)cc(OC)c3Cl)cc3cnc(NC)nc32)CC1 [8-(3-(4-acryloylpiperazin-1-yl)propyl)-6-(2,6-dichloro-3,5-dimethoxyphenyl)-2-(methylamino)pyrido(2,3-d)pyrimidin-7(8H)-one]",tumor size,HGS tumor model,55 mm3
"COc1cc2ncnc(N3CCC(CCCB(O)O)CC3)c2cc1OC [Cpd. 3, (3-(1-(6,7-dimethoxyquinazolin-4-yl)piperidin-4-yl)propyl)boronic acid]",Ki,ENPP1 [1],< 1 nM
"COc1cc2ncnc(N3CCC(CP(=O)(O)O)CC3)c2cc1OC [Cpd. 4, ((1-(6,7-dimethoxyquinazolin-4-yl)piperidin-4-yl)methyl)phosphonic acid]",Ki,ENPP1 [1],< 5 nM
"COc1cc2ncnc(NCc3ccc(B(O)O)cc3)c2cc1OC [Cpd. 7, (4-(((6,7-dimethoxyquinazolin-4-yl)amino)methyl)phenyl)boronic acid formic acid salt]",Ki,ENPP1 [2],< 10 nM
same,Ki,ENPP1 [1],< 1 nM
"COc1cc2ncnc(-c3ccc(COS(N)(=O)=O)cc3)c2cc1OC [Cpd. 17, 4-(6,7-dimethoxyquinazolin-4-yl)benzyl sulfamate]",Ki,ENPP1 [2],< 1 nM
"COc1cc2ncnc(N3CCC(CCCP(=O)(O)O)CC3)c2cc1OC [compound 6, (3-(1-(6,7-dimethoxyquinazolin-4-yl)piperidin-4-yl)propyl)phosphonic acid]",Ki,ENPP1 [2],< 5 nM
same,Ki,ENPP1 [1],< 1 nM
"COc1cc2ncnc(NCc3ccc(B(O)O)cn3)c2cc1OC [compound 8, (6-(((6,7-dimethoxyquinazolin-4-yl)amino)methyl)pyridin-3-yl)boronic acid]",Ki,ENPP1 [1],< 10 nM
"COc1cc2ncnc(Nc3ccc4c(c3)COB4O)c2cc1OC [compound 10, 5-((6,7-dimethoxyquinazolin-4-yl)amino)-1,3-dihydro-2,1-benzoxaborol-1-ol]",Ki,ENPP1 [1],< 10 nM
"COc1cc2ncnc(NCc3ccc(B(O)O)cc3F)c2cc1OC [compound 11, 4-(((6,7-dimethoxyquinazolin-4-yl)amino)methyl)-3-fluorophenylboronic acid formic acid salt]",Ki,ENPP1 [2],< 10 nM
"COc1cc2ncnc(NCc3cccc(B(O)O)c3)c2cc1OC [compound 12, (3-(((6,7-dimethoxyquinazolin-4-yl)amino)methyl)phenyl)boronic acid]",Ki,ENPP1 [2],< 10 nM
same,Ki,ENPP1 [1],< 1 nM
"COc1cc2ncnc(NCc3ccc(P(=O)(O)O)cc3)c2cc1OC [compound 13, (4-(((6,7-dimethoxyquinazolin-4-yl)amino)methyl)phenyl)phosphonic acid]",Ki,ENPP1 [1],< 5 nM
"COc1cc2ncnc(NCC3CCN(S(N)(=O)=O)CC3)c2cc1OC [compound 18, 4-(((6,7-dimethoxyquinazolin-4-yl)amino)methyl)piperidine-1-sulfonamide]",Ki,ENPP1 [1],< 5 nM
"COc1cc2ncnc(OCc3ccc(B(O)O)cc3)c2cc1OC [compound 19, (4-(((6,7-dimethoxyquinazolin-4-yl)oxy)methyl)phenyl)boronic acid]",Ki,ENPP1 [2],< 5 nM
same,Ki,ENPP1 [1],< 1 nM
"COc1cc2ncnc(OCc3ccc4c(c3)B(O)OC4)c2cc1OC [compound 20, 6-(((6,7-dimethoxyquinazolin-4-yl)oxy)methyl)-3H-2,1-benzoxaborol-1-ol]",Ki,ENPP1 [1],< 5 nM
"COc1cc2ncnc(OCc3ccc4c(c3)COB4O)c2cc1OC [compound 21, 5-(((6,7-dimethoxyquinazolin-4-yl)oxy)methyl)-3H-2,1-benzoxaborol-1-lol]",Ki,ENPP1 [1],< 10 nM
"COc1cc2ncnc(NCc3c(F)cc(B(O)O)cc3F)c2cc1OC [compound 24, 4-(((6,7-dimethoxyquinazolin-4-yl)amino)methyl)-3,5-difluorophenylboronic acid hydrochloride]",Ki,ENPP1 [2],< 10 nM
"COc1ccc2c(NCc3ccc(B(O)O)cc3)ncnc2c1 [compound 30, 4-(((7-methoxyquinazolin-4-yl)amino)methyl)phenylboronic acid]",Ki,ENPP1 [2],< 5 nM
"COc1ccc2c(NCc3ccc(P(=O)(O)O)cc3)ncnc2c1 [compound 41, 4-(((7-methoxyquinazolin-4-yl)amino)methyl)phenylphosphonic acid formic acid salt]",Ki,ENPP1 [2],< 5 nM
